Source: US10202370B2, “Benzimidazole derivatives as selective proteine kinase inhibitors” (AB SCIENCE, priority 2013, dated 2019)

Target: c-kit WT (Homo sapiens (Human), UniProt P10721)
Assay: Proliferation assay (CellTiter-Blue) on BaF3 Kit WT cell line
Format: cell-based
Details: BaF3 Kit WT cell line (murine Ba/F3 expressing Human Kit WT, with murine SCF), 48 hours
Protocol: Procedures of C-Kit WT Inhibition Assays:
Colorimetric cell proliferation and viability assay (reagent CellTiter-Blue purchased from Promega cat N°G8081) was performed on BaF3 Kit WT cell line.
A total of 2.10^4 cells/50 μl were seeded per well of a 96-wells plate. Treatment was initiated by addition of a 2× drug solution of ½ serial dilutions ranging from 0 to 10 μM. After incubating for 48 hours at 37° C., 10 μl of a ½ dilution of CellTiter-Blue reagent was added to each well and the plates were returned to the incubator for an additional 4 hours. The fluorescence intensity from the CellTiter-Blue reagent is proportional to the number of viable cells and data were recorded (544Ex/590Em) using a POLARstar OMEGA microplate reader (BMG LabteckSarl). A background control without cells was used as a blank. The positive control of the assay corresponds to the cell proliferation obtained in the absence of drug treatment (100% proliferation). Each sample was done in triplicate. The results were expressed as a percentage of the proliferation obtained in absence of treatment. All drugs were prepared as 20 mM stock solutions in DMSO and conserved at −80° C. Drug dilutions were made fresh in medium before each experiment. A DMSO control was included in each experiment.
The cell line expressing Human Kit WT was derived from the murine IL3-dependent Ba/F3 proB lymphoid cells. Ba/F3 Kit WT cells were maintained in RPMI medium containing 10% FCS and supplemented with 250 ng/ml of recombinant murine SCF.

Chain of c-kit WT (P10721 26-976): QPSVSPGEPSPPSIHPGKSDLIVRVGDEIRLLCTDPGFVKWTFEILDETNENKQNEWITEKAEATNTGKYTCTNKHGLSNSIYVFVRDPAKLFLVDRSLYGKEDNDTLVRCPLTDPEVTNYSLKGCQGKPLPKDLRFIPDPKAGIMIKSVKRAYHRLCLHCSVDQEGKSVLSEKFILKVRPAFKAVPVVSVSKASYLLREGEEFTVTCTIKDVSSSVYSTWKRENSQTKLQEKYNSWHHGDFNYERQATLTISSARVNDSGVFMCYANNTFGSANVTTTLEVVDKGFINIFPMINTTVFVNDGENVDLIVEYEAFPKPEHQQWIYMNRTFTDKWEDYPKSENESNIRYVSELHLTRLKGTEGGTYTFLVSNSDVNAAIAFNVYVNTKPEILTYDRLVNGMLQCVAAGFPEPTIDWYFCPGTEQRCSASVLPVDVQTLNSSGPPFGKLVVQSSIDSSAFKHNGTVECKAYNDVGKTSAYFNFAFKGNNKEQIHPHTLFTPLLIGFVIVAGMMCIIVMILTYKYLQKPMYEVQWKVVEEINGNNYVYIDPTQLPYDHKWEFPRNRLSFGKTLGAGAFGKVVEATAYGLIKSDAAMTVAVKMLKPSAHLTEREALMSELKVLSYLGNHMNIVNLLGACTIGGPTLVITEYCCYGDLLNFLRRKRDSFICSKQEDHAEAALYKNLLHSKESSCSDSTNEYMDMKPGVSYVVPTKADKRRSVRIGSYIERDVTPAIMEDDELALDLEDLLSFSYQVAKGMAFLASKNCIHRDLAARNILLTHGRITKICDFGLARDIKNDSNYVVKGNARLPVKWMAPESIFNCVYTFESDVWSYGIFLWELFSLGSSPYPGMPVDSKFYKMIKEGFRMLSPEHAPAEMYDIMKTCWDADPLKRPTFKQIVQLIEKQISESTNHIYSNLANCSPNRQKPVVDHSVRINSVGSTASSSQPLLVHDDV

| Structure (SMILES) | IC50 [nM] |
| --- | --- |
| Cc1cc2nc(-c3cccc(Cl)c3)[nH]c2cc1Nc1nc(-c2cncnc2)cs1 [Compound 068, [2-(3-Chloro-phenyl)-6-methyl-1H-benzoimidazol-5-yl]-(4-pyrimidin-5-yl-thiazol-2-yl)-amine] | 1000 to 10000 |
| Cc1cc2c(cc1Nc1nc(-c3cccnc3)cs1)nc(-c1cccc(OC(F)(F)F)c1)n2C [Compound 086, [1,6-Dimethyl-2-(3-trifluoromethoxy-phenyl)-1H-benzoimidazol-5-yl]-(4-pyridin-3-yl-thiazol-2-yl)-amine] | ≤ 1000 |
| Cc1cc2nc(-c3cc(CN4CCCCC4)cc(C(F)(F)F)c3)[nH]c2cc1Nc1nc(-c2cccnc2)cs1 [Compound 024, [6-Methyl-2-(3-piperidin-1-ylmethyl-5-trifluoromethyl-phenyl)-3H-benzoimidazol-5-yl]-(4-pyridin-3-yl-thiazol-2-yl)-amine] | ≤ 1000 |
| C=CS(=O)(=O)Nc1cc(-c2nc3cc(Nc4nc(-c5ccncc5)cs4)c(C)cc3n2C)cc(C(F)(F)F)c1 [Compound 122, Ethenesulfonic acid {3-[1,6-dimethyl-5-(4-pyridin-4-yl-thiazol-2-ylamino)-yl]-5-trifluoromethyl-phenyl}-amide] | 1000 to 10000 |
| CCn1c(-c2cccc(C)c2)nc2cc(Nc3nc(-c4ccncc4)cs3)c(C)cc21 [Compound 104, (1-Ethyl-6-methyl-2-m-tolyl-1H-benzoimidazol-5-yl)-(4-pyridin-4-yl-thiazol-2-yl)-amine] | ≤ 1000 |
| Cc1cc2nc(-c3ccc(C(F)(F)F)cc3)[nH]c2cc1Nc1nc(-c2cncnc2)cs1 [Compound 067, [6-Methyl-2-(4-trifluoromethyl-phenyl)-1H-benzoimidazol-5-yl]-(4-pyrimidin-5-yl-thiazol-2-yl)-amine] | 1000 to 10000 |
| Cc1cc2nc(-c3cccc(C(F)(F)F)c3)n(C)c2cc1Nc1nc(-c2cccnc2)cs1 [Compound 116, [3,6-Dimethyl-2-(3-trifluoromethyl-phenyl)-3H-benzoimidazol-5-yl]-(4-pyridin-3-yl-thiazol-2-yl)-amine] | 1000 to 10000 |
| Cc1cc2nc(Cc3cccc(C(F)(F)F)c3)[nH]c2cc1Nc1ncc(-c2ccncc2)o1 [Compound 051, [6-Methyl-2-(3-trifluoromethyl-benzyl)-3H-benzoimidazol-5-yl]-(5-pyridin-4-yl-oxazol-2-yl)-amine] | 1000 to 10000 |
| Cc1cccc(-c2nc3cc(C)c(Nc4nc(-c5cccnc5)cs4)cc3n2C)c1 [Compound 118, (3,6-Dimethyl-2-m-tolyl-3H-benzoimidazol-5-yl)-(4-pyridin-3-yl-thiazol-2-yl)-amine] | 1000 to 10000 |
| Cc1cc2[nH]c(-c3cc(F)cc(C(F)(F)F)c3)nc2cc1Nc1nc(-c2ccncc2)cs1 [Compound 149, [2-(3-Fluoro-5-trifluoromethyl-phenyl)-6-methyl-1H-benzoimidazol-5-yl]-(4-pyridin-4-yl-thiazol-2-yl)-amine] | ≤ 1000 |
| Cc1cc2c(cc1Nc1nc(-c3cccnc3)cs1)nc(-c1cccc(C(C)(C)C)c1)n2C [Compound 145, [2-(3-tert-Butyl-phenyl)-1,6-dimethyl-1H-benzoimidazol-5-yl]-(4-pyridin-3-yl-thiazol-2-yl)-amine] | ≤ 1000 |
| C#Cc1cccc(-c2nc3cc(Nc4nc(-c5ccc(C#N)cc5)cs4)c(C)cc3[nH]2)c1 [Compound 141, 4-{2-[2-(3-Ethynyl-phenyl)-6-methyl-1H-benzoimidazol-5-ylamino]-thiazol-4-yl}-benzonitrile] | ≤ 1000 |
| Cc1cc2c(cc1Nc1nc(-c3cccnc3)cs1)nc(-c1ccc(CN3CCN(C)CC3)cc1)n2C [Compound 098, {1,6-Dimethyl-2-[4-(4-methyl-piperazin-1-ylmethyl)-phenyl]-1H-benzoimidazol-5-yl}-(4-pyridin-3-yl-thiazol-2-yl)-amine] | 1000 to 10000 |
| Cc1cc2c(cc1Nc1nc(-c3ccnc(Cl)c3)cs1)nc(-c1cccc(C(F)F)c1)n2C [Compound 119, [4-(2-Chloro-pyridin-4-yl)-thiazol-2-yl]-[2-(3-difluoromethyl-phenyl)-1,6-dimethyl-1H-benzoimidazol-5-yl]-amine] | ≤ 1000 |

Other lines, results leading:

| IC50 [nM] | Structure (SMILES) |
| --- | --- |
| ≤ 1000 | Cc1cc2nc(-c3cccc(C(F)F)c3)[nH]c2cc1Nc1nc(-c2cccc(C#N)c2)cs1 [Compound 127, 3-{2-[2-(3-Difluoromethyl-phenyl)-6-methyl-3H-benzoimidazol-5-ylamino]-thiazol-4-yl}-benzonitrile] |
| 1000 to 10000 | Cc1cc2nc(-c3cc(CN4CCN(C)CC4)cc(-c4cnco4)c3)[nH]c2cc1Nc1nccc(-c2cccnc2)n1 [Compound 039, {6-Methyl-2-[3-(4-methyl-piperazin-1-ylmethyl)-5-oxazol-5-yl-phenyl]-3H-benzoimidazol-5-yl}-(4-pyridin-3-yl-pyrimidin-2-yl)-amine] |
| 1000 to 10000 | Cc1cc2nc(-c3cccc(CN4CCN(C)CC4)c3)[nH]c2cc1Nc1nccc(-c2cccnc2)n1 [Compound 043, {6-Methyl-2-[3-(4-methyl-piperazin-1-ylmethyl)-phenyl]-3H-benzoimidazol-5-yl}-(4-pyridin-3-yl-pyrimidin-2-yl)-amine] |
| 1000 to 10000 | Cc1cc2nc(-c3ccc(C(F)(F)F)cc3)[nH]c2cc1Nc1nccc(-c2cccnc2)n1 [Compound 027, [6-Methyl-2-(4-trifluoromethyl-phenyl)-3H-benzoimidazol-5-yl]-(4-pyridin-3-yl-pyrimidin-2-yl)-amine] |
| ≤ 1000 | Cc1cc2[nH]c(-c3cccc(C(F)F)c3)nc2cc1Nc1nc(-c2ccnc(Cl)c2)cs1 [Compound 108, [4-(2-Chloro-pyridin-4-yl)-thiazol-2-yl]-[2-(3-difluoromethyl-phenyl)-6-methyl-1H-benzoimidazol-5-yl]-amine] |
| ≤ 1000 | Cc1cc2nc(-c3cccc(C(F)F)c3)[nH]c2cc1Nc1nccc(-c2cccnc2)n1 [Compound 030, [2-(3-Difluoromethyl-phenyl)-6-methyl-3H-benzoimidazol-5-yl]-(4-pyridin-3-yl-pyrimidin-2-yl)-amine] |
| ≤ 1000 | Cc1cc2nc(-c3cccc(C(F)F)c3)[nH]c2cc1Nc1nc(-c2ccncc2)cs1 [Compound 045, [2-(3-Difluoromethyl-phenyl)-6-methyl-3H-benzoimidazol-5-yl]-(4-pyridin-4-yl-thiazol-2-yl)-amine] |
| 1000 to 10000 | Cc1cc2nc(-c3ccccc3C)[nH]c2cc1Nc1nc(-c2cccnc2)cs1 [Compound 001, (6-Methyl-2-o-tolyl-3H-benzoimidazol-5-yl)-(4-pyridin-3-yl-thiazol-2-yl)-amine] |
| ≤ 1000 | Cc1cc2[nH]c(-c3cccc(S(C)(=O)=O)c3)nc2cc1Nc1nc(-c2cccnc2)cs1 [Compound 121, [2-(3-Methanesulfonyl-phenyl)-6-methyl-1H-benzoimidazol-5-yl]-(4-pyridin-3-yl-thiazol-2-yl)-amine] |
| 1000 to 10000 | Cc1cc2nc(-c3cc(C(C)(C)C)ccc3OCCN(C)C)[nH]c2cc1Nc1nccc(-c2cccnc2)n1 [Compound 036, {2-[5-tert-Butyl-2-(2-dimethylamino-ethoxy)-phenyl]-6-methyl-3H-benzoimidazol-5-yl}-(4-pyridin-3-yl-pyrimidin-2-yl)-amine] |
| ≤ 1000 | Cc1cc2nc(-c3cccc(C#N)c3)[nH]c2cc1Nc1nc(-c2cccnc2)cs1 [Compound 010, 3-[5-Methyl-6-(4-pyridin-3-yl-thiazol-2-ylamino)-1H-benzoimidazol-2-yl]-benzonitrile] |
